How the values were obtained:
[1] = Microsomal stability in human liver microsome assessed as intrinsic clearance; type: ADME; settings: liver microsomes, read-out: CLH
[2] = target: T1, Probable ATP-dependent RNA helicase DHX35 (Homo sapiens, UniProt Q9H5Z1); test: Inhibition of N-terminal thioredoxin-tagged human recombinant DHX35 transformed in Escherichia coli BL21(DE3)pLysS cells
T1 sequence (Q9H5Z1 whole entry): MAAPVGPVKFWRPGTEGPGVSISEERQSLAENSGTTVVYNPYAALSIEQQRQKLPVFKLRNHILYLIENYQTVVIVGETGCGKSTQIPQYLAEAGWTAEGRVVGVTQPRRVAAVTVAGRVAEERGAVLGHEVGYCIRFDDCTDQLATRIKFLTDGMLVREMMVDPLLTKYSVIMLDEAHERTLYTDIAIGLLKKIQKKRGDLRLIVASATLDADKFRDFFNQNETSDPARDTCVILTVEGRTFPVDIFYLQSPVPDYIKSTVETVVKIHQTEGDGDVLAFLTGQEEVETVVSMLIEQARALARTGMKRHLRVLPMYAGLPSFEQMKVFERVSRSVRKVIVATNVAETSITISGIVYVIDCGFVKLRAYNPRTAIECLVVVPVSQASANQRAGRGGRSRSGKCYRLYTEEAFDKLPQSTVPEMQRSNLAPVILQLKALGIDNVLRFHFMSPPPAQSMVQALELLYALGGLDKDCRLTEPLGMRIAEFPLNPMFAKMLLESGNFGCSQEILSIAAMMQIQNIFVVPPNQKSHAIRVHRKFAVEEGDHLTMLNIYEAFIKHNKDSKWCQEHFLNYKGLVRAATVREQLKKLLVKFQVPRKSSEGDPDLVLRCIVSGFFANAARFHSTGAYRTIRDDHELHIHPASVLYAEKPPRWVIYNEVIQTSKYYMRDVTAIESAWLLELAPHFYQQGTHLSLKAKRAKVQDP

[3] = target: T2, ATP-dependent RNA helicase DHX33 (Mus musculus, UniProt Q80VY9); test: Inhibition of N-terminal/C-terminal 6x His-tagged wild type recombinant mouse DHX33 transformed in Escherichia coli BL21(DE3)pLysS cells
T2 sequence (Q80VY9 whole entry): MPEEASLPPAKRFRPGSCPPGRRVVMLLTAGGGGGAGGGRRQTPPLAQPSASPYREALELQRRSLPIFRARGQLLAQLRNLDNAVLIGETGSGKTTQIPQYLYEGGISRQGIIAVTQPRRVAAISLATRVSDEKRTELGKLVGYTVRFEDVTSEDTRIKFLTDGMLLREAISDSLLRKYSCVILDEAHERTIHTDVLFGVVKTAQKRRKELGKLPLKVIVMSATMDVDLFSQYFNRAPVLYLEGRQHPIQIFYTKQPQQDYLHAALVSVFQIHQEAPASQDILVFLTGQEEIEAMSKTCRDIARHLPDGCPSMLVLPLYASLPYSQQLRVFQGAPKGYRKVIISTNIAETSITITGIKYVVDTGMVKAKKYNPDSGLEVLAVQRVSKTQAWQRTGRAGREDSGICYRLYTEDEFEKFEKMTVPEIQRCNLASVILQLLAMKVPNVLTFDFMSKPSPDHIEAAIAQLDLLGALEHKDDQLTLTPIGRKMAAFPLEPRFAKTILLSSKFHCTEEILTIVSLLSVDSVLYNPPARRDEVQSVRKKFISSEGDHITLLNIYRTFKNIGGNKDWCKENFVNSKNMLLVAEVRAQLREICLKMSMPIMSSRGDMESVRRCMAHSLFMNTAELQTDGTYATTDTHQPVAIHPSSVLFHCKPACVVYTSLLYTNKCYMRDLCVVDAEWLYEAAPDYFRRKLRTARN

Nucleolar RNA helicase 2 = target: T3, Nucleolar RNA helicase 2 (Homo sapiens, UniProt Q9NR30); test: Inhibition of N-terminal thioredoxin-tagged human recombinant DDX21 transformed in Escherichia coli BL21(DE3)pLysS cells
T3 sequence (Q9NR30 whole entry): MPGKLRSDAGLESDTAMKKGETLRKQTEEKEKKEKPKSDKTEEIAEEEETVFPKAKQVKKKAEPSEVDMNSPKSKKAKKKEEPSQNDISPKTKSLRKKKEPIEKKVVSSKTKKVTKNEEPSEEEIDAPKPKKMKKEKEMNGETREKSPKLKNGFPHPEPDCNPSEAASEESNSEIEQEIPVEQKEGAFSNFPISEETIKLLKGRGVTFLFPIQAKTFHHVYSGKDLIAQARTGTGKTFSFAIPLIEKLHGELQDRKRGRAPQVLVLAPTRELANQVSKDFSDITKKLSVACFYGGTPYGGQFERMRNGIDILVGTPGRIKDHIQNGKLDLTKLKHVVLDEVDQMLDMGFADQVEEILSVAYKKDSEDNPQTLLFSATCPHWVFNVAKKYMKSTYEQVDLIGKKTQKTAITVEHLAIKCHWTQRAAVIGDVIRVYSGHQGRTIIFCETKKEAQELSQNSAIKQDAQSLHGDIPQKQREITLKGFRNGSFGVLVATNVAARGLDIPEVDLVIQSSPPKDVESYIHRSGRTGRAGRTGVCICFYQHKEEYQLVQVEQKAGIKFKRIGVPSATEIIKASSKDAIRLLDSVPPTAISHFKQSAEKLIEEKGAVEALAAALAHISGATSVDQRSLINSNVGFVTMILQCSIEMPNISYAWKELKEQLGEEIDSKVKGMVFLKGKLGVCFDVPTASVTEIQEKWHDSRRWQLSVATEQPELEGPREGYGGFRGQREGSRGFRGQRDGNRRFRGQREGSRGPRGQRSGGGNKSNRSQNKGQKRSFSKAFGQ

U-251 = test: Antiproliferative activity against human U-251MG cells overexpressing DHX33 assessed as inhibition of cell growth measured after 48 hrs by CCK-8 assay; type: functional, cell-based; settings: U-251, 48 h

Molecule `COc1ccc2nc(NC(=O)c3cc(C)n(-c4sc(C)cc4C#N)c3C)[nH]c2c1` has a CLint scaled [1] of 22.4 mL/min/kg, an IC50 [2] of 117000 nM and an IC50 [3] of 19 nM. For the same molecule, the IC50 (Nucleolar RNA helicase 2) was > 100000 nM and the IC50 (U-251) was 20 nM.
